For this test, the system named is Vero-E6 cells. As to the kind of experiment: cells. It is filed as cell-based. The following applies: Chlorocebus sabaeus, Vero C1008, 24 h, read-out: PL_Result.

Turning to `C[C@@H](c1ncncc1F)[C@](O)(Cn1cncn1)c1ccc(F)cc1F` [SPE_K06557128], the activation at 10 µM was -4.59%. Consider `NC(=O)C[C@H](N)C(=O)O` [SPE_K06665116], for which the activation at 10 µM is -6.33%. For `COc1ccc(-c2cc(=O)c3c(OC)c(OC)c(OC)c(OC)c3o2)cc1OC` [SPE_K06753942] the value was 17.9%; for `CC(C)Cn1cnc2c1c(=O)n(C)c(=O)n2C` [SPE_K06762493], -8.79%; for `O=C(Nc1cc(Cl)cc(Cl)c1O)c1c(O)c(Cl)cc(Cl)c1Cl` [SPE_K07283971], -4.07%. As for `Cc1cc(NCCO)nc(-c2ccc(Br)cc2)n1` [SPE_K07656463], the activation at 10 µM is -1.9%. For `CC[C@H](CO)Nc1nc(NCc2ccccc2)c2ncn(C(C)C)c2n1` [SPE_K07691486] the value was 5.8%; for `CC(C)(C)OC(=O)N[C@H]1CCCCC/C=C\[C@@H]2C[C@@]2(C(=O)NS(=O)(=O)C2CC2)NC(=O)[C@@H]2C[C@@H](OC(=O)N3Cc4cccc(F)c4C3)CN2C1=O` [SPE_K08111240], -7.46%; for `Cc1cccc2c1CC[C@H](CN1CCC(c3c(Cl)cccc3Cl)CC1)C[C@@H]2O` [SPE_K08333979], -2.39%. To `O=C(O)c1cn(-c2ccc(F)cc2)c2cc(N3CCNCC3)c(F)cc2c1=O` [SPE_K08525451] belongs -3.13%; to `O=C(O)CCn1c2c(c3ccccc31)C[C@H](NS(=O)(=O)c1ccc(F)cc1)CC2` [SPE_K08586861], -12%; to `Cc1ccc(-n2sc(=O)n(Cc3ccc(F)cc3)c2=O)cc1` [SPE_K08893438], 8.86%. For `CC(C)[C@@H](C)/C=C/[C@@H](C)[C@H]1CC[C@H]2C3=CC=C4C[C@@H](O)CC[C@]4(C)[C@H]3CC[C@]12C` [SPE_K09161066] the value was -4.6%. As for `Oc1c(I)cc(Cl)c2cccnc12` [SPE_K09255212], the activation at 10 µM came out at 3.03%. In the case of `COCC(=O)O[C@]1(CCN(C)CCCc2nc3ccccc3[nH]2)CCc2cc(F)ccc2[C@@H]1C(C)C` [SPE_K09549677], the activation at 10 µM was determined as 97.4%. In the case of `CCc1c(C(=O)C(N)=O)c2c(OCC(=O)O)cccc2n1Cc1ccccc1` [SPE_K09711437], the activation at 10 µM was -15.1%. For `N[C@H](CSC(c1ccccc1)(c1ccccc1)c1ccccc1)C(=O)O` [SPE_K09774593] the value was -6.1%; for `COC(=O)c1ccccc1O` [SPE_K10103010], 2.4%. To `O=C(O)CCCCC(=O)O` [SPE_K10656395] belongs 4.52%. Regarding `CCOC(=O)Nc1ccc2c(c1)N(C(=O)CCN(CC)CC)c1ccccc1S2` [SPE_K10667240], the activation at 10 µM was -10.8%.

Take `Nc1ccc(S(=O)(=O)Nc2ccnn2-c2ccccc2)cc1` [SPE_K10671814]: the activation at 10 µM was -1.85%. For `N#Cc1ccc(Cn2cncc2CN2CCN(c3cccc(Cl)c3)C(=O)C2)cc1` [SPE_K10958118] the value was -5.79%.

As for `CN1CCN(c2nc3ccccc3nc2Cl)CC1` [SPE_K11046126], the activation at 10 µM was -4.46%. On to `CCc1cc2c(cc1N1CCC(N3CCOCC3)CC1)C(C)(C)c1[nH]c3cc(C#N)ccc3c1C2=O` [SPE_K11267252], for which the activation at 10 µM is 0.894%. As to `CCc1cc2c(c(CC)n1)CCC(=O)N2Cc1ccc(-c2ccccc2-c2nnn[nH]2)cc1` [SPE_K11373525], the activation at 10 µM is -4.91%. For `Nc1nc(Nc2ccc(S(N)(=O)=O)cc2)nn1C(=O)c1c(F)cccc1F` [SPE_K11636097] the value was -9.77%; for `C[C@]12CC[C@H](O)C[C@H]1CC[C@@H]1[C@@H]2CC[C@]2(C)[C@@](O)(c3ccoc3)CC[C@]12O` [SPE_K11672787], -0.921%. For `CCN(CC)Cc1ccc(C(=O)N(CCc2ccccc2OC)[C@@H]2CCNC2)cc1` [SPE_K11821338] the value was -4.98%; for `CN(C)CC(=O)Nc1ccc2[nH]c(=O)c3ccccc3c2c1` [SPE_K11853856], -0.459%. For `CCC(=O)NO` [SPE_K11984358] the value was -5.92%; for `CC(=O)Nc1cccc(-n2c(=O)n(C3CC3)c(=O)c3c(Nc4ccc(I)cc4F)n(C)c(=O)c(C)c32)c1` [SPE_K12343256], -1.89%; for `Cc1c(N(C)C)c(=O)n(-c2ccccc2)n1C` [SPE_K12568846], -3.72%. `Oc1nc(-c2ccc(C(F)(F)F)cc2)nc2c1CSCC2` [SPE_K12762134]: the activation at 10 µM is -6.13%.

`CCc1ccc2c(-c3cccc(Cl)c3)nc(=O)n(CC)c2n1` [SPE_K12932420]: the activation at 10 µM came to 0.000931%.

In the case of `Cc1c(C2CCN(CCc3ccccc3)CC2)noc1-c1ccc(Cl)cc1` [SPE_K13211965], the activation at 10 µM turned out to be 49%. For `CCN(CC)Cc1ccc2cc(COC(=O)Nc3ccc(C(=O)NO)cc3)ccc2c1` [SPE_K13810148] the value was -13.8%; for `COc1ccc(C(=O)/C(Cc2cc(OC)c(OC)c(OC)c2)=C(\C(=O)O)c2ccc3c(c2)OCO3)cc1` [SPE_K13826399], 12.9%; for `CC(=O)C1(N)Cc2c(O)c3c(c(O)c2[C@@H](O[C@H]2C[C@H](O)[C@H](O)CO2)C1)C(=O)c1ccccc1C3=O` (some centres unmarked) [SPE_K13843533], 6.95%. To `CCCc1nc(C)c2c(=O)[nH]c(-c3cc(S(=O)(=O)N4CCN(CC)CC4)ccc3OCC)nn12` [SPE_K13926615] belongs 1%. To `COc1cc(NS(=O)(=O)c2ccc(N)cc2)ncn1` [SPE_K14116214] belongs -1.27%; to `COc1ccc2cc3[n+](cc2c1OC)CCc1cc2c(cc1-3)OCO2` [SPE_K14796088], -2.9%; to `O=C(O)c1ccc(-c2c[nH]c3ncc(-c4ccccc4)cc23)cc1C1CCCC1` [SPE_K14991967], -4.54%.

`Cc1ccc(S(=O)(=O)/C=C/C#N)cc1` [SPE_K15025317]: the activation at 10 µM was -2.64%. For the molecule `CC(C)C[C@H](NC(=O)CNC(=O)c1cc(Cl)ccc1Cl)B1OC(=O)C(CC(=O)O)(CC(=O)O)O1` [SPE_K15203492], the activation at 10 µM is -7.87%. To `COc1cc2c(cc1C(F)(F)F)N(C(=O)Nc1cc(F)cc(-c3cccnc3)c1)CC2` [SPE_K15424032] belongs 13.1%; to `Cn1ncc2c(N3CCOCC3)nc(-c3cccc(O)c3)nc21` [SPE_K15858023], -6.72%; to `O=C(CC(c1ccccc1)c1ccccc1)N1CCN(C(c2ccccc2)c2ccccc2)CC1` [SPE_K16037980], -13.7%. To `CCCCN(CCCC)C(=O)CN1C[C@H](c2ccc3c(c2)OCO3)[C@@H](C(=O)O)[C@@H]1c1ccc(OC)cc1` [SPE_K16295392] belongs -6.93%. As to `CC(C)c1c(NC(=O)Nc2ccc(Cl)cc2)c(=O)n(-c2ccccc2)n1C` [SPE_K16497916], the activation at 10 µM was -9.16%. To `Cn1c2c(c3ccccc31)CCNCC2` [SPE_K16551401] belongs 7.36%. For `CN1C(=O)OC(C)(C)C1=O` [SPE_K16606819] the value was -11.7%. For `c1ccc(-c2n[nH]c3c2oc2ccccc23)cc1` [SPE_K16664969] the value was -3.59%; for `CCN1C(=O)CN=C2NC=C(c3ccc(-c4nnc[nH]4)nc3C)N=C21` [SPE_K16755045], 5.12%.

For the origin of these results see paper PMC13083723 (Patterns, 2026).
